Values belong to the compound of their own block, whether it stands above or below them.
Key:
MAO-A = molecular target: T1, MAO-A (Homo sapiens, UniProt P21397); assay: Inhibition of human recombinant MAO-A expressed in Pichia pastoris using kynuramine as substrate at 100 uM by horseradish peroxidase coupled-assay relative to control; details: probe kynuramine
T1 sequence (P21397 whole entry): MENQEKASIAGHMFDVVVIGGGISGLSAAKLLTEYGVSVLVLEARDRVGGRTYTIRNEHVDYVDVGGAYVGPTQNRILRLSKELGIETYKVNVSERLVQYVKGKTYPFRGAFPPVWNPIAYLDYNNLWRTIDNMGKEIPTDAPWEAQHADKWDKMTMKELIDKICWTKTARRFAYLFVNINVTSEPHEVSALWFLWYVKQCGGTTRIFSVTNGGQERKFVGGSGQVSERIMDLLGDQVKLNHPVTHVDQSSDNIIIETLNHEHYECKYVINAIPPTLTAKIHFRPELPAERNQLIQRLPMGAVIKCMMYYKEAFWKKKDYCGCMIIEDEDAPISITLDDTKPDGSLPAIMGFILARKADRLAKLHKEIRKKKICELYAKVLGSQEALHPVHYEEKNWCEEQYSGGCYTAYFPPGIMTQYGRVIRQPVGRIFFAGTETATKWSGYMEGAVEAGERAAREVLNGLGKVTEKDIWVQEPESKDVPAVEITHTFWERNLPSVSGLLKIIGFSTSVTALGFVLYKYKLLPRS

MAO-B = molecular target: T2, MAO-B (Homo sapiens, UniProt P27338); assay: Inhibition of human recombinant MAO-B expressed in Pichia pastoris using benzylamine as substrate at 100 uM by horseradish peroxidase coupled-assay relative to control; details: probe benzylamine
T2 sequence (P27338 whole entry): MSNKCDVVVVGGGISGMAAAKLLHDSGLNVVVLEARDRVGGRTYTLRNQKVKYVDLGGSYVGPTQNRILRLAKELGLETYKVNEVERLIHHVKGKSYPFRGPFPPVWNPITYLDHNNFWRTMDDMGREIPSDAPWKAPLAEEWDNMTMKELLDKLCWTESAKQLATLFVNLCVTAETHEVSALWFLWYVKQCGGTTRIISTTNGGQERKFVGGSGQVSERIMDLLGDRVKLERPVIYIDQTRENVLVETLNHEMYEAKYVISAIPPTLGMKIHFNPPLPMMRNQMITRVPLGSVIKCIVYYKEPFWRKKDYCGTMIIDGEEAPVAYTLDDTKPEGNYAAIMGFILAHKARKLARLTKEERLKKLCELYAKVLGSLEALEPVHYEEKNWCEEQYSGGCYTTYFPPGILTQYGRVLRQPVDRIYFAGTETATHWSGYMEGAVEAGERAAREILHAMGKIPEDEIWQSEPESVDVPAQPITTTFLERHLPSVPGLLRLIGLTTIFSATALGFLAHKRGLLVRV

MV4-11 [1] = assay: Antiproliferative activity against human MV4-11 cells incubated for 48 hrs by CellTiter-Fluor cell viability assay; format: functional, cell-based; details: MV4-11, 48 h
NB-4 = assay: Antiproliferative activity against human NB4 cells incubated for 48 hrs by CellTiter-Fluor cell viability assay; format: functional, cell-based; details: NB-4, 48 h
HeLa = assay: Antiproliferative activity against human HeLa cells after 48 hrs by MTT assay; format: functional
HCT-116 = assay: Antiproliferative activity against human HCT116 cells after 48 hrs by MTT assay; format: functional
PC-3 = assay: Antiproliferative activity against human PC-3 cells after 48 hrs by MTT assay; format: functional
KYSE-150 cell line = assay: Antiproliferative activity against human KYSE150 cells after 48 hrs by MTT assay; format: functional
SH-SY5Y = assay: Antiproliferative activity against human SH-SY5Y cells after 48 hrs by MTT assay; format: functional
[2] = molecular target: T3, Amine oxidase [flavin-containing] A (Homo sapiens, UniProt P21397); assay: biochemical
T3 sequence (P21397 whole entry): T1 sequence (P21397 whole entry)

[3] = molecular target: T4, Amine oxidase [flavin-containing] B (Homo sapiens, UniProt P27338); assay: biochemical
T4 sequence (P27338 whole entry): T2 sequence (P27338 whole entry)

[4] = molecular target: T4, Amine oxidase [flavin-containing] B; assay: Inhibition of MAO-B (unknown origin) measured after 60 mins by luciferin-based luminescence assay
[5] = molecular target: T5, Lysine-specific histone demethylase 1A (Homo sapiens, UniProt O60341)
[6] = molecular target: T5, Lysine-specific histone demethylase 1A; remark: listed apart in the source
[7] = molecular target: T5, Lysine-specific histone demethylase 1A; remark: listed apart in the source
[8] = molecular target: T3, Amine oxidase [flavin-containing] A
[9] = molecular target: T3, Amine oxidase [flavin-containing] A; assay: Inhibition of human MAO-A expressed in baculovirus infected BTI insect cells by fluorescence method
[10] = molecular target: T4, Amine oxidase [flavin-containing] B; assay: Inhibition of human MAO-B expressed in baculovirus infected BTI insect cells by fluorescence method
[11] = molecular target: T5, Lysine-specific histone demethylase 1A; assay: Inhibition of human LSD1 expressed in Escherichia coli BL21 (DE3) cells using (ARTK(diMe)QTARKSTGGKAPRKQLA peptide as substrate incubated for 30 mins by HRP reagent based fluorescence method
[12] = molecular target: T3, Amine oxidase [flavin-containing] A; assay: Inhibition of MAO-A (unknown origin) preincubated for 20 mins using 5-hydroxytryptamine as substrate followed by substrate addition and measured after 60 mins
[13] = molecular target: T4, Amine oxidase [flavin-containing] B; assay: Inhibition of MAO-B (unknown origin) using benzylamine as substrate preincubated for 20 mins followed by substrate addition and measured after 60 mins
MV4-11 [14] = assay: Antiproliferative activity against human MV4-11 cells incubated for 6 days by MTS assay; format: functional, cell-based; details: MV4-11, 144 h
[15] = molecular target: T6, Lysine-specific histone demethylase 2 (Homo sapiens, UniProt Q8NB78); assay: Inhibition of LSD2 (unknown origin) using Lys4-dimethylated H3 (1-20) peptide as substrate incubated for 30 mins by peroxidase-coupled assay
T6 sequence (Q8NB78 whole entry): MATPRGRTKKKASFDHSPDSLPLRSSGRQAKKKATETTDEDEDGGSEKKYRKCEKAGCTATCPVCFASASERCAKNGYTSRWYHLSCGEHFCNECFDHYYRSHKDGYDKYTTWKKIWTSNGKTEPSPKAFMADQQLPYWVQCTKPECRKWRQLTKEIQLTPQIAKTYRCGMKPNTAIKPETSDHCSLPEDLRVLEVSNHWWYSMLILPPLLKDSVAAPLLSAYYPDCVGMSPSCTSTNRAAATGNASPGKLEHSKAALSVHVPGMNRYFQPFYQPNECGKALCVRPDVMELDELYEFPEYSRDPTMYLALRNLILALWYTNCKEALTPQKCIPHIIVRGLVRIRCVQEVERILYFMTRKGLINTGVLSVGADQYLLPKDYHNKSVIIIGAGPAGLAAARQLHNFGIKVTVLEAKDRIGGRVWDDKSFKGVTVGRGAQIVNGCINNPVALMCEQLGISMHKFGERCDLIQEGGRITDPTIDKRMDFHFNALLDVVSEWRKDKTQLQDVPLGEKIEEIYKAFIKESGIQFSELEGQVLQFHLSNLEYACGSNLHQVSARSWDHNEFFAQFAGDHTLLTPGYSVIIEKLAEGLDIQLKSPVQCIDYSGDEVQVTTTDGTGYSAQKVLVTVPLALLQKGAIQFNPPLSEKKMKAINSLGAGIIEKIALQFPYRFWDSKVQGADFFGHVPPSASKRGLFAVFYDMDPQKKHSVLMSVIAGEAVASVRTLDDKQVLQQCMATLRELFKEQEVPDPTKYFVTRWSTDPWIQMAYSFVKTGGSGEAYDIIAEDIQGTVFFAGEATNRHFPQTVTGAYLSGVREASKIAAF

[16] = molecular target: T3, Amine oxidase [flavin-containing] A; assay: Inhibition of human MAO-A expressed in baculovirus infected BTI insect cells using tyramine as substrate incubated for 30 mins by peroxidase-coupled assay
[17] = molecular target: T4, Amine oxidase [flavin-containing] B; assay: biochemical; remark: listed apart in the source
[18] = molecular target: T3, Amine oxidase [flavin-containing] A; assay: Inhibition of human MAO-A expressed in baculovirus infected BTI insect cells preincubated for 10 mins followed by substrate addition and measured after 60 mins by luciferin-based luminescence assay
[19] = molecular target: T4, Amine oxidase [flavin-containing] B; assay: Inhibition of human MAO-B expressed in baculovirus infected BTI insect cells preincubated for 10 mins followed by substrate addition and measured after 60 mins by luciferin-based luminescence assay
[20] = molecular target: T5, Lysine-specific histone demethylase 1A; assay: Inhibition of His-tagged full length human LSD1 expressed in Escherichia coli BL21 RIPL Codon Plus (DE3) using ARTK(me2)QTARKSTGGKAPRKQLA as substrate preincubated for 10 mins followed by substrate addition by amplex ultra red and HRP reagent based fluorescence method
Kasumi 1 = assay: Antiproliferative activity against human KASUMI-1 cells incubated for 72 hrs by CellTiter-glo assay; format: functional, cell-based; details: Kasumi 1, 72 h
U-937 = assay: Antiproliferative activity against human U-937 cells incubated for 72 hrs by CellTiter-glo assay; format: functional, cell-based; details: U-937, 72 h
HL-60 = assay: Antiproliferative activity against human HL-60 cells incubated for 72 hrs by CellTiter-glo assay; format: functional, cell-based; details: HL-60, 72 h
OCI-AML-3 = assay: Antiproliferative activity against human OCI-AML3 cells incubated for 72 hrs by CellTiter-glo assay; format: functional, cell-based; details: OCI-AML-3, 72 h
THP-1 = assay: Antiproliferative activity against human THP-1 cells incubated for 72 hrs by CellTiter-glo assay; format: functional, cell-based; details: THP-1, 72 h
MV4-11 [21] = assay: Antiproliferative activity against human MV4-11 cells incubated for 72 hrs by CellTiter-glo assay; format: functional, cell-based; details: MV4-11, 72 h
[22] = molecular target: T5, Lysine-specific histone demethylase 1A; assay: Inhibition of human LSD1 (172 to 833 residues) using Lys4-dimethylated H3 (1-20) peptide as substrate incubated for 30 mins by peroxidase-coupled assay

- IC50 [4]: 10.8 µM
- IC50 [5]: 0.031 µM
- IC50 [6]: 0.003 µM
- IC50 [7]: 0.007 µM
- IC50 [8]: 12.9 µM
SMILES: CN1CCN(C(=O)CN[C@@H]2C[C@H]2c2ccc(F)nc2)CC1

- IC50 [9]: 2.5 µM
- IC50 [10]: 32 µM
SMILES: Fc1ccccc1CNC1CC12CCc1ccccc12 (centres undefined)

- Ki [15]: > 250 µM
- Ki [16]: > 250 µM
- Ki [17]: > 250 µM
SMILES: CN1CCN(C(=O)CNC2CC2c2cc(F)cc(F)c2OCc2ccccc2)CC1 (centres undefined)

- IC50 [18]: > 100 µM
- IC50 [19]: > 100 µM
SMILES: Cn1cc(C(=O)Nc2ccc([C@@H]3C[C@H]3NCC3CC3)cc2)cn1

- IC50 (U-937): 1.6 µM
- IC50 (HL-60): 1.7 µM
- IC50 (OCI-AML-3): 1.8 µM
- IC50 (THP-1): 0.1 µM
- IC50 (MV4-11 [21]): 0.18 µM
SMILES: N[C@@H]1C[C@H]1c1ccc(C(=O)NCc2ccccc2)cc1
- IC50 [20]: 0.3 µM
- IC50 (Kasumi 1): 0.03 µM

- Ki [22]: 0.56 µM
- Ki [15]: > 250 µM
- Ki [16]: > 250 µM
- Ki [17]: > 250 µM
SMILES: N[C@H]1CCN(C(=O)CNC2CC2c2cc(F)cc(F)c2OCc2ccccc2)C1 (some centres undefined)

More lines, now with the values behind:

SMILES: NC1CC1c1ccc(NC(=O)c2ccc(NC(=O)OCc3ccccc3)cc2)cc1 (centres undefined)
- inhibition at 100 µM (MAO-A): 37%
- inhibition at 100 µM (MAO-B): 8%
- IC50 (MV4-11 [1]): 0.4 µM
- IC50 (NB-4): 0.6 µM

SMILES: NC1CC1c1ccc(OCC[C@H](NC(=O)c2ccccc2)C(=O)NCc2ccccc2)cc1 (some centres undefined)
- GI50 (HeLa): 6 µM
- GI50 (HCT-116): 6 µM
- GI50 (PC-3): 6 µM
- GI50 (KYSE-150 cell line): 6 µM
- GI50 (SH-SY5Y): 6 µM
- IC50 [2]: 290 µM
- IC50 [3]: > 1000 µM

SMILES: COc1ccc(CNC2CC23CCc2ccccc23)c(Cl)c1OC (centres undefined)
- IC50 [9]: 5 µM
- IC50 [10]: 7 µM

SMILES: CCN(CC)S(=O)(=O)c1ccc([C@H]2C[C@@H]2NC(=O)OC(C)(C)C)cc1
- IC50 [11]: > 1 µM
- IC50 [12]: 0.708 µM
- IC50 [13]: 0.655 µM
- IC50 (MV4-11 [14]): 4.9 µM

SMILES: COc1ccccc1CNC1CC12CCc1ccccc12 (centres undefined)
- IC50 [9]: 5.9 µM
- IC50 [10]: 12 µM

SMILES: COc1ccc(Br)cc1CNC1CC12CCc1ccccc12 (centres undefined)
- IC50 [9]: 3.7 µM
- IC50 [10]: 1.2 µM

Source: ChEMBL document CHEMBL4813911 (J Med Chem, 2020)
